As a reminder, the EC50 is the concentration giving half of the maximal effect. The Ki is the equilibrium dissociation constant of an inhibitor or competing ligand from its target.

These results are taken from patent EP2027081B1, “THERAPEUTIC PROSTAGLANDIN COMPOUNDS FOR THE TREATMENT OF GLAUCOMA” (ALLERGAN, INC., priority 2006, dated 2007).

SMILES strings stand for the structures.

In one assay the target is T1, hEP4/Gqs5 (Homo sapiens, UniProt P35408).
T1 construct: expressed in transfected cells; host or cells: HEK-293(EBNA)
T1 sequence (P35408 whole entry): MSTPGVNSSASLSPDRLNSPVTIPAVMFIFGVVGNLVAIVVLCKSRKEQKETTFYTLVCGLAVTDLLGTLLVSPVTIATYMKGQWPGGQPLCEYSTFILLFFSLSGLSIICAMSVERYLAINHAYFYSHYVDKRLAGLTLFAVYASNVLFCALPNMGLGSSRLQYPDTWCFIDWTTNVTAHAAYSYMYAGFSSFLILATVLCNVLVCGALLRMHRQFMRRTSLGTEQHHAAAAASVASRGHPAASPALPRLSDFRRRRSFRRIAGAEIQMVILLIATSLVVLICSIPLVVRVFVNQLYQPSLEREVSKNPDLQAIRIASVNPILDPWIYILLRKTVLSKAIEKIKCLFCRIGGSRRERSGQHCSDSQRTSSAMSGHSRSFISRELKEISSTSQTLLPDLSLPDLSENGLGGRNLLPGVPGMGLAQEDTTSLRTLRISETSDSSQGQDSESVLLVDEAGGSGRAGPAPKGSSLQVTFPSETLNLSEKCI
The experiment in a line: FLIPR calcium signal study, HEK-293(EBNA) cells. Format: cell-based. The conditions noted are these: Table 1; NA means not active; read-out: FUNCTIONAL (Ca2+, EC50, nM) HEP 4. Here is the method: (§1) HEK-293(EBNA) cells, stably expressing one type or subtype of recombinant human prostaglandin receptors (prostaglandin receptors expressed: hDP/Gqs5; hEP1; hEP2/Gqs5; hEP3A/Gqi5; hEP4/Gqs5; hFP; hIP; hTP), were cultured in 100 mm culture dishes in high-glucose DMEM medium containing 10% fetal bovine serum, 2 mM I-glutamine, 250 µg/ml geneticin (G418) and 200 µg/ml hygromycin B as selection markers, and 100 units/ml penicillin G, 100 µg/ml streptomycin and 0.25 µg/ml amphotericin B.
(§2) Cells were seeded at a density of 5x10^4 cells per well in Biocoat® Poly-D-lysine-coated black-wall, clear-bottom 96-well plates (Becton-Dickinson) and allowed to attach overnight in an incubator at 37 °C. Cells were then washed two times with HBSS-HEPES buffer (Hanks Balanced Salt Solution without bicarbonate and phenol red, 20 mM HEPES, pH 7.4) using a Denley Cellwash plate washer (Labsystems). After 45 minutes of dye-loading in the dark, using the calcium-sensitive dye Fluo-4 AM at a final concentration of 2 µM, plates were washed four times with HBSS-HEPES buffer to remove excess dye leaving 100 µl in each well. Plates were re-equilibrated to 37 °C for a few minutes.
(§3) Cells were excited with an Argon laser at 488 nm, and emission was measured through a 510-570 nm bandwidth emission filter (FLIPR™, Molecular Devices, Sunnyvale, CA). Drug solution was added in a 50 µl volume to each well to give the desired final concentration. The peak increase in fluorescence intensity was recorded for each well. On each plate, four wells each served as negative (HBSS-HEPES buffer) and positive controls (standard agonists: BW245C (hDP); PGE2 (hEP1; hEP2/Gqs5; hEP3A/Gqi5; hEP4/Gqs5); PGF2α (hFP); carbacyclin (hIP); U-46619 (hTP), depending on receptor). The peak fluorescence change in each drug-containing well was then expressed relative to the controls.
(§4) Compounds were tested in a high-throughput (HTS) or concentration-response (CoRe) format. In the HTS format, forty-four compounds per plate were examined in duplicates at a concentration of 10^-5 M. To generate concentration-response curves, four compounds per plate were tested in duplicates in a concentration range between 10^-5 and 10^-11 M. The duplicate values were averaged. In either, HTS or CoRe format each compound was tested on at least 3 separate plates using cells from different passages to give an n ≥ 3.

The target in the next assay is T2, hEP2/Gqs5 (Homo sapiens, UniProt P43116).
T2 construct: expressed in transfected cells; host or cells: HEK-293(EBNA)
T2 sequence (P43116 whole entry): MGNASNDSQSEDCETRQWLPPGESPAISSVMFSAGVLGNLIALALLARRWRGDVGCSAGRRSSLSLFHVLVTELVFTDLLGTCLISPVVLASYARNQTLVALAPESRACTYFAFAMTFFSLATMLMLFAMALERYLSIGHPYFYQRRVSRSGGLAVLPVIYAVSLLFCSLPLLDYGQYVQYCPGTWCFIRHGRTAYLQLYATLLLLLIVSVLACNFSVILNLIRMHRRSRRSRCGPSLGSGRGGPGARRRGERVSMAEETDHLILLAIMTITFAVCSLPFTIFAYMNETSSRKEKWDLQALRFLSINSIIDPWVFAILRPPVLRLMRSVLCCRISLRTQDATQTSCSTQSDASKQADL
Kind of assay: FLIPR calcium signal study, HEK-293(EBNA) cells. Format: cell-based. The conditions noted are these: Table 1; Ca2+ signal; NA means not active; read-out: FUNCTIONAL (Ca2+, EC50, nM) HEP 2. As to the method:
as §2
Cells were excited with an Argon laser at 488 nm, and emission was measured through a 510-570 nm bandwidth emission filter (FLIPR™, Molecular Devices, Sunnyvale, CA). […] The peak increase in fluorescence intensity was recorded for each well. […] The peak fluorescence change in each drug-containing well was then expressed relative to the controls.
Compounds were tested in a high-throughput (HTS) or concentration-response (CoRe) format. In the HTS format, forty-four compounds per plate were examined in duplicates at a concentration of 10^-5 M. To generate concentration-response curves, four compounds per plate were tested in duplicates in a concentration range between 10^-5 and 10^-11 M. The duplicate values were averaged.

For another assay, the target named is T3, hDP/Gqs5 (Homo sapiens, UniProt Q13258).
T3 construct: expressed in transfected cells; host or cells: HEK-293(EBNA)
T3 sequence (Q13258 whole entry): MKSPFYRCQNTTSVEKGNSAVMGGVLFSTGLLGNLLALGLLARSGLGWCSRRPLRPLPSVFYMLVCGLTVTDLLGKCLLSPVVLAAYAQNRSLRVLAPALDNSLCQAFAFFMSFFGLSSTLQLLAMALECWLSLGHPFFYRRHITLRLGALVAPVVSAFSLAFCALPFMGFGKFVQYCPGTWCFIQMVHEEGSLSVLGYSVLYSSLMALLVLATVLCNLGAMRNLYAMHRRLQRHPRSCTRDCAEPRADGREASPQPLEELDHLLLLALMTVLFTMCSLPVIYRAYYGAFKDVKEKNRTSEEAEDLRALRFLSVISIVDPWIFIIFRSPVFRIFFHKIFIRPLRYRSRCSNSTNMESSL
Kind of assay: FLIPR calcium signal study, HEK-293(EBNA) cells. Type of assay: cell-based. The note with it: Table 1; NA means not active; read-out: FUNCTIONAL (Ca2+, EC50, nM) HDP. Here is the method: as §1, §2, §3, §4

Another assay deals with HEP 2 (Homo sapiens, UniProt P43116). The experiment in a line: cAMP mediated assay. Type of assay: cell-based. The conditions noted are these: Table 1; value in brackets, footnote (a).
HEP 2, sequence (P43116 whole entry): as the sequence (P43116 whole entry) above
Another assay deals with T4, hEP3A/Gqi5 (Homo sapiens, UniProt P43115).
T4 construct: expressed in transfected cells; host or cells: HEK-293(EBNA)
T4 sequence (P43115 1-390): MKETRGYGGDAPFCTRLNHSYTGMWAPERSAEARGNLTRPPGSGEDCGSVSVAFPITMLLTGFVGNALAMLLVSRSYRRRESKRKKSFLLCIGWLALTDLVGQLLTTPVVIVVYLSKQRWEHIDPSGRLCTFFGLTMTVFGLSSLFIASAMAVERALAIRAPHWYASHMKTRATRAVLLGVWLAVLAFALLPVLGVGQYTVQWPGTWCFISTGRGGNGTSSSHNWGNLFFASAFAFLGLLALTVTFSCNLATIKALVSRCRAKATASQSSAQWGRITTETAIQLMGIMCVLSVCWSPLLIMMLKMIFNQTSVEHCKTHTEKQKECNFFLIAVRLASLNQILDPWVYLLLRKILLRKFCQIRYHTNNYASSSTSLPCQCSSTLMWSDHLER
The experiment in a line: FLIPR calcium signal study, HEK-293(EBNA) cells. Format: cell-based. The conditions noted are these: Table 1; NA means not active; read-out: FUNCTIONAL (Ca2+, EC50, nM) HEP 3A. Here is the method:
as §1, §2, §3, §4

A further assay addresses T5, human EP2 receptors (Homo sapiens, UniProt P43116).
T5 construct: expressed in transfected cells; host or cells: HEK 293
Kind of assay: Competition binding, [3H]PGE2, HEK 293 cells stably expressing human EP2 receptors. The conditions noted are these: Table 1; read-out: BINDING (Ki, nM) HEP 2. Here is the method:
Competition binding experiments were performed in a medium containing Hank's balanced salt solution, Hepes 20 mM, pH 7.3, membranes (∼60 µg protein) or 2x10^5 cells from HEK 293 cells stably expressing human EP2 receptors, [^3H]PGE2 (10 nM) and various concentrations of test compounds in a total volume of 300 µl. Reaction mixtures were incubated at 23 °C for 60 min, and were filtered over Whatman GF/B filters under vacuum. Filters were washed three times with 5 ml ice-cold buffer containing 50 mM Tris/HCl (pH 7.3). Non-specific binding was estimated in the presence of excess unlabeled PGE2 (10 µM). Binding data fitted to the binding model for a single class of binding sites, using nonlinear regression analysis.
HEK-293 cells stably expressing the human or feline FP receptor, or EP1, EP2, or EP4 receptors were washed with TME buffer, scraped from the bottom of the flasks, and homogenized for 30 sec using a Brinkman PT 10/35 polytron. TME buffer was added to achieve a final 40 ml volume in the centrifuge tubes (the composition of TME is 100 mM TRIS base, 20 mM MgCl2, […]; 10N HCl is added to achieve a pH of 7.4).
The cell homogenate was centrifuged at 19000 r.p.m. for 20 min at 4° C using a Beckman Ti-60 rotor. The resultant pellet was resuspended in TME buffer to give a final 1 mg/ml protein concentration, as determined by Biorad assay. Radioligand binding competition assays vs. [^3H-]17 -phenyl PGF2α (5 nM) were performed in a 100µl volume for 60 min. Binding reactions were started by adding plasma membrane fraction. The reaction was terminated by the addition of 4 ml ice-cold TRIS-HCl buffer and rapid filtration through glass fiber GF/B filters using a Brandel cell harvester. The filters were washed 3 times with ice-cold buffer and oven dried for one hour.
[^3H-] PGE2 (specific activity 180 Ci mmol) was used as the radioligand for EP receptors. [^3H] 17-phenyl PGF2α was employed for FP receptor binding studies. Binding studies employing EP1, EP2, EP4 and FP receptors were performed in duplicate in at least three separate experiments. A 200µl assay volume was used. Incubations were for 60 min at 25°C and were terminated by the addition of 4 ml of ice-cold 50 mM TRIS-HCl, followed by rapid filtration through Whatman GF/B filters and three additional 4 ml washes in a cell harvester (Brandel). Competition studies were performed using a final concentration of 5 nM [^3H]-PGE2, or 5 nM [^3H] 17-phenyl PGF2α and non-specific binding determined with 10^-5M of unlabeled PGE2, or 17-phenyl PGF2α, according to receptor subtype studied.

T5 sequence (P43116 whole entry): as the sequence (P43116 whole entry) above

For the compound `CCCC1(C(O)c2ccc([C@H]3CCC(=O)[C@@H]3C/C=C\CCCC(=O)O)cc2)CCC1` (some centres unmarked) [Entry 9], the concentration for a half-maximal effect (EC50) at hEP4/Gqs5 and on hEP2/Gqs5 was > 10000 nM each time.
Regarding `CCCC1(C(O)c2ccc([C@H]3CCC(=O)[C@@H]3C/C=C\CCCC(=O)O)cc2)CCC1` (some centres unmarked) [Entry 6], the EC50 at hDP/Gqs5 was > 10000 nM; at hEP2/Gqs5, 2870 nM.
On to `CCCCCC(O)c1ccc([C@H]2CCC(=O)[C@@H]2CCCc2ccc(C(=O)O)s2)cc1` (some centres unmarked) [Entry 23], for which the EC50 at HEP 2 is 3 nM; at hEP3A/Gqi5, 55 nM; at hEP2/Gqs5 it was 2 nM. Also, the Ki on human EP2 receptors is 54 nM.
